# Source: US7091354B2, “Processes for the preparation of peripheral opioid antagonist compounds and intermediates thereto” (Adolor Corporation, priority 2002, dated 2006)
row,melting point [°C],Compound
1,48,"C=C(C(=O)OC)[C@@H](O)c1ccccc1 (single isomer, unassigned)"
2,51,"C=C(C(=O)OC)C(O)c1ccccc1 (single isomer, unassigned)"
